{
  "source": "patent US11084842B2",
  "about": "(SUNSHINE LAKE PHARMA CO., LTD., priority 2018, dated 2021)",
  "key": {"human SGLT1": {"molecular_target": "T1, human SGLT1 (Homo sapiens, UniProt P13866)", "T1 construct": "expressed in transfected cells; host or cells: CHO cells (FIP-in CHO; mock-transfected cells as control)", "T1 sequence (P13866 1-664)": "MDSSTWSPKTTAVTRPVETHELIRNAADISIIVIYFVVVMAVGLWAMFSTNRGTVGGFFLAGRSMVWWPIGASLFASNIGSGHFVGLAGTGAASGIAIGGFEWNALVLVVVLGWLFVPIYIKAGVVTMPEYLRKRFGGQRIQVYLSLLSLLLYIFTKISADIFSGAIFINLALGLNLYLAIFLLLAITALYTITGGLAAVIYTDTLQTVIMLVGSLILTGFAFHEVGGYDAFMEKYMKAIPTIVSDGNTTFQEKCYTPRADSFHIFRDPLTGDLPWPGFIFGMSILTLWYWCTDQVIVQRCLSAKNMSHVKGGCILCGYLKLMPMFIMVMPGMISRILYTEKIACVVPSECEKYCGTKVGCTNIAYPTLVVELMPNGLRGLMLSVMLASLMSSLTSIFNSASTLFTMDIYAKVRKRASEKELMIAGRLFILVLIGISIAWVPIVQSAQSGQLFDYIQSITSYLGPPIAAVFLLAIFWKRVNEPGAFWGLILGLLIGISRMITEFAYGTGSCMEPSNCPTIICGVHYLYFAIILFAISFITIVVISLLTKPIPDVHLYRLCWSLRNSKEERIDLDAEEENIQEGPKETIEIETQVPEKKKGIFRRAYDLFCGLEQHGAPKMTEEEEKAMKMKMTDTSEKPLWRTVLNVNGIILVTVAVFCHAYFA", "experiment": "Test of inhibitory activity on SGLT1 ([14C]-AMG uptake in CHO cells expressing human SGLT1)", "format": "cell-based", "details": "CHO cells expressing human SGLT1, 0.5 μM [14C]-AMG, 37° C., 1 hour", "procedure": "The following methods can be used to determine the inhibitory activity of the compound of the invention on SGLT-1.\nMock-transfected FIP-in CHO cells (3×10^4 cells) and expressing human SGLT1 CHO cells were seeded into 96-well plates respectively. The cells were incubated for 12 hours. Each well of the 96-well plate was washed with 150 μL of sodium-free buffer once. To each well was added 50 μL of sodium-containing buffer containing test compounds having different concentrations and 0.5 μM [^14C]-AMG. The incubation mixture was incubated at 37° C. for 1 hour. To each well was added 150 μL of precooled sodium-free buffer to terminate the reaction. The cell pellet was washed with sodiumfree buffer three times and the residual liquid in well was removed. To each well was added 20 μL of precooled 100 mM NaOH. The 96-well plate was vibrated at 900 rpm for 5 minutes. Scintillation fluid (80 μL) was added to each well which was then vibrated at 600 rpm for 5 minutes. The amount of ^14C-AMG was quantitatively detected using liquid scintillation."}, "blood glucose of SD rats": {"system": "blood glucose of SD rats", "experiment": "Oral glucose tolerance test in SD rats (Test Method 2)", "format": "in vivo", "details": "glucose 4.0 g/kg, decline rate of AUCGlu 0-60min", "procedure": "The following methods were used to evaluate the effects of the compound of the invention on improving oral glucose tolerance and glycosuria excretion.\nThe weights and the fasting blood glucose levels of male SD rats were measured after an overnight 15-hours fast. The rats were grouped by their weights and fasting plasma glucose levels. […] After 30 minutes, the blood glucose level (i.e., zero point blood glucose) of each group was measured, and then each group was immediately administered glucose (4.0 g/kg) once by gavage. The blood was drawn from the caudal vein of the […] at 15, 30 and 60 minutes after glucose administration and the blood glucose levels were measured continuously on blood-glucose meter. The decline rate of the area under the blood sugar curve within 60 minutes (AUCGlu 0-60min) after sugar loading was calculated."}},
  "data": [
    {"molecule": "CC[C@@]12CO[C@@](c3ccc(C)c(Cc4ccc(CCCC(=O)NC(C)(C)C(=O)NCCN(C)C)cc4)c3)(O1)[C@H](O)[C@@H](O)[C@@H]2O", "note": "[Example 14, N-(2-dimethylaminoethyl)-2-[4-[4-[[5-[(1S,2S,3S,4R,5S)-1-ethyl-2,3,4-trihydroxy-6,8-dioxabicyclo[3.2.1]octane-5-yl]-2-methyl-phenyl]methyl]phenyl]butanamido]-2-methyl-propionamide]", "values": [
      {"measurement": "IC50", "setting": "human SGLT1", "value": 570, "unit": "pM"}
    ]},
    {"molecule": "Cc1ccc([C@]23OC[C@](C(C)(C)O)(O2)[C@@H](O)[C@H](O)[C@H]3O)cc1Cc1ccc(CCCC(=O)NC2(C(=O)NCCN(C)C)CCCC2)cc1", "note": "[Example 8, N-(2-dimethylaminoethyl)-1-[4-[4-[[2-methyl-5-[(1S,2S,3S,4R,5S)-2,3,4-trihydroxy-1-(1-hydroxy-1-methyl-ethyl)-6,8-dioxabicyclo[3.2.1]octane-5-yl]phenyl]methyl]phenyl]butylamide]cyclopentyl formamide]", "values": [
      {"measurement": "IC50", "setting": "human SGLT1", "value": 240, "unit": "pM"}
    ]},
    {"molecule": "Cc1ccc([C@]23OC[C@](C)(O2)[C@@H](O)[C@H](O)[C@H]3O)cc1Cc1ccc(CCCC(=O)NC2(C(=O)NCCN(C)C)CCC2)cc1", "note": "[Example 17, N-(2-dimethylaminoethyl)-1-[4-[4-[[2-methyl-5-[(1S,2S,3S,4R,5S)-2,3,4-trihydroxy-1-methyl-6,8-dioxabicyclo[3.2.1]octane-5-yl]phenyl]methyl]phenyl]butanamido]cyclobutyl carboxamide]", "values": [
      {"measurement": "IC50", "setting": "human SGLT1", "value": 400, "unit": "pM"}
    ]},
    {"molecule": "Cc1ccc([C@]23OC[C@](C(C)(C)O)(O2)[C@@H](O)[C@H](O)[C@H]3O)cc1Cc1ccc(CCCC(=O)N[C@H](C(=O)NCCN(C)C)C2CC2)cc1", "note": "[Example 10, N-[(1S)-1-cyclopropyl-2-(2-dimethylaminoethylamino)-2-oxo-ethyl]-4-[4-[[2-methyl-5-[(1S,2S,3S,4R,5S)-2,3,4-trihydroxy-1-(1-hydroxy-1-methyl-ethyl)-6,8-dioxabicyclo[3.2.1]octane-5-yl]phenyl]methyl]phenyl]butanamide]", "values": [
      {"measurement": "IC50", "setting": "human SGLT1", "value": 1610, "unit": "pM"}
    ]},
    {"molecule": "Cc1ccc([C@]23OC[C@](C(C)(C)O)(O2)[C@@H](O)[C@H](O)[C@H]3O)cc1Cc1ccc(CCCC(=O)NC(C)(C)C(=O)NCCN(C)C)cc1", "note": "[Example 2]", "values": [
      {"measurement": "hypoglycemic rate (%)", "setting": "blood glucose of SD rats; dosage 1 mg/kg by gavage", "value": 31.64, "unit": "%"}
    ]},
    {"molecule": "Cc1ccc([C@]23OC[C@](C(C)(C)O)(O2)[C@@H](O)[C@H](O)[C@H]3O)cc1Cc1ccc(CCCC(=O)NC2(C(=O)NCCN(C)C)CCCCC2)cc1", "note": "[Example 16, N-(2-dimethylaminoethyl)-1-[4-[4-[[2-methyl-5-[(1S,2S,3S,4R,5S)-2,3,4-trihydroxy-1-(1-hydroxy-1-methyl-ethyl)-6,8-dioxabicyclo[3.2.1]octane-5-yl]phenyl]methyl]phenyl]butylamide]cyclohexyl carboxamide]", "values": [
      {"measurement": "IC50", "setting": "human SGLT1", "value": 470, "unit": "pM"},
      {"measurement": "hypoglycemic rate (%)", "setting": "blood glucose of SD rats; dosage 0.1 mg/kg by gavage", "value": 30.93, "unit": "%"}
    ]},
    {"molecule": "Cc1ccc([C@]23OC[C@](C(C)(C)O)(O2)[C@@H](O)[C@H](O)[C@H]3O)cc1Cc1ccc(CCCC(=O)N[C@@H](C)C(=O)NCCN(C)C)cc1", "note": "[Example 6, N-[(1S)-2-(2-dimethylaminoethylamino)-1-methyl-2-oxo-ethyl]-4-[4-[[2-methyl-5-[(1S,2S,3S,4R,5S)-2,3,4-trihydroxy-1-(1-hydroxy-1-methyl-ethyl)-6,8-dioxabicyclo[3.2.1]octane-5-yl]phenyl]methyl]phenyl]butanamide]", "values": [
      {"measurement": "hypoglycemic rate (%)", "setting": "blood glucose of SD rats; dosage 1 mg/kg by gavage", "value": 33.19, "unit": "%"}
    ]},
    {"molecule": "CCC(CC)(NC(=O)CCCc1ccc(Cc2cc([C@]34OC[C@](C(C)(C)O)(O3)[C@@H](O)[C@H](O)[C@H]4O)ccc2C)cc1)C(=O)NCCN(C)C", "note": "[Example 12, N-(2-dimethylaminoethyl)-2-ethyl-2-[4-[4-[[2-methyl-5-[(1S,2S,3S,4R,5S)-2,3,4-trihydroxy-1-(1-hydroxy-1-methyl-ethyl)-6,8-dioxabicyclo[3.2.1]octane-5-yl]phenyl]methyl]phenyl]butanamido]butanamide]", "values": [
      {"measurement": "IC50", "setting": "human SGLT1", "value": 1510, "unit": "pM"}
    ]},
    {"molecule": "Cc1ccc([C@]23OC[C@](C(C)(C)O)(O2)[C@@H](O)[C@H](O)[C@H]3O)cc1Cc1ccc(CCCC(=O)NC2(C(=O)NCCN(C)C)CCC2)cc1", "note": "[Example 11]", "values": [
      {"measurement": "IC50", "setting": "human SGLT1", "value": 230, "unit": "pM"}
    ]},
    {"molecule": "Cc1ccc([C@]23OC[C@](C)(O2)[C@@H](O)[C@H](O)[C@H]3O)cc1Cc1ccc(CCCC(=O)NC(C)(C)C(=O)NCCN(C)C)cc1", "note": "[Example 13]", "values": [
      {"measurement": "IC50", "setting": "human SGLT1", "value": 2900, "unit": "pM"}
    ]},
    {"molecule": "Cc1ccc([C@]23OC[C@](C)(O2)[C@@H](O)[C@H](O)[C@H]3O)cc1Cc1ccc(OCCCC(=O)NC2(C(=O)NCCN(C)C)CCCCC2)cc1", "note": "[Example 21, N-(2-dimethylaminoethyl)-1-[4-[4-[[2-methyl-5-[(1S,2S,3S,4R,5S)-2,3,4-trihydroxy-1-methyl-6,8-dioxabicyclo[3.2.1]octane-5-yl]phenyl]methyl]phenoxy]butanamido]cyclohexylcarboxamide]", "values": [
      {"measurement": "IC50", "setting": "human SGLT1", "value": 600, "unit": "pM"}
    ]},
    {"molecule": "Cc1ccc([C@]23OC[C@](C)(O2)[C@@H](O)[C@H](O)[C@H]3O)cc1Cc1ccc(OCCCC(=O)NC2(C(=O)NCCN(C)C)CCC2)cc1", "note": "[Example 20, N-(2-dimethylaminoethyl)-1-[4-[4-[[2-methyl-5-[(1S,2S,3S,4R,5S)-2,3,4-trihydroxy-1-methyl-6,8-dioxabicyclo[3.2.1]octane-5-yl]phenyl]methyl]phenoxy]butanamido]cyclobutyl carboxamide]", "values": [
      {"measurement": "IC50", "setting": "human SGLT1", "value": 550, "unit": "pM"}
    ]},
    {"molecule": "Cc1ccc([C@]23OC[C@](C)(O2)[C@@H](O)[C@H](O)[C@H]3O)cc1Cc1ccc(CCCC(=O)NC2(C(=O)NCCN(C)C)CCCCC2)cc1", "note": "[Example 18]", "values": [
      {"measurement": "IC50", "setting": "human SGLT1", "value": 430, "unit": "pM"}
    ]}
  ]
}
